Reference: patent US20040018984A1, “Methods for preventing adhesion formation using protease inhibitors” (priority 2002, published 2004)
Blank lines part the entries; values can stand above or below the compound they belong to.

How the values were obtained:
Syrian hamsters = experiment: Scoring of adhesion formation after uterine denudation surgery in hamsters; type: in vivo, hamster; conditions: for preventative effect, reducing adhesion formation: subsequent experiments in the hamster model with enantiomerically enriched preparations
Description: (§1) Mature female Syrian hamsters (SLC, Shizuoka, Japan), 6 weeks of age, weighing 85 to 90 g were maintained in an environmentally controlled room with a 12-hour light, 12-hour dark cycle. Hamsters were anesthetized with intraperitoneal sodium pentobarbital (50 mg/kg). Surgical technique was performed using a modified procedure of Nagler et al. (Am. J. Obstet. Gynecol. 180:558-63, 1999). An abdominal midline incision was made, and the right uterus was grasped and denuded of serosa over half the length of the uterine body until punctate hemorrhage occurred, using a swab. In the […], 1 ml of 10 μM Suc-Val-Pro-Phe^P(OPh)2 in saline was injected into the abdomen. Then, the abdomen was closed in two layers with silk sutures. In the placebo group, the same 1 ml amount of saline was administered as in the chymase inhibitor group.
(§2) Three days after the surgery, the animals (placebo group, n=13; chymase group, n=13) were anesthetized with sodium pentobarbital (50 mgikg, i.p.), and then the uterus was removed for the measurement of chymase activity. Two weeks after the surgery, the animals (placebo group, n=15; chymase group, n=16) were anesthetized with sodium pentobarbital (50 mg/kg, i.p.), and then adhesions were assessed.
The adhesions were graded blindly according to a modified classification of Hulka et al. (Fertil Steril. 30:661-665, 1978): Score 0, no adhesions; Score 1, mild adhesions; Score 2, localized moderate adhesions; Score 3, moderate and wide adhesions; Score 4, severe adhesions, and impossible to separate. Chymase activities were evaluated in a parametric test using Fisher's Protected Least Significant Difference. Adhesion scores were evaluated in a nonparametric test, and statistically analyzed by the Mann-Whitney's U test. Values are given as means ±standard error (S.E.). Differences were considered statistically significant at P<0.05.

[1] = test system: chymotrypsin and chymotrypsin-like enzymes; conditions: cited from earlier work
[2] = cited from earlier work
chymase [3] = target: T1, chymase (Homo sapiens, UniProt P23946); experiment: Chymase activity in vascular tissues after administration during the operation; type: in vivo; conditions: for 4 weeks, 10 μM administration only during the operation
T1 construct: from tissue
T1 sequence (P23946 22-247): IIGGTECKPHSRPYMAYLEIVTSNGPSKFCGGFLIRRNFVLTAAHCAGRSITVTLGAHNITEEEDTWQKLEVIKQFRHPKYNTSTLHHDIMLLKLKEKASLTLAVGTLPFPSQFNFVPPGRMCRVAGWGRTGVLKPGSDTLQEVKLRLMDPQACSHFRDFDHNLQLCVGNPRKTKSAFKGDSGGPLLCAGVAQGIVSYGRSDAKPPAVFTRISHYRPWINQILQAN
Text: Pursuant to the method of the present invention, at least one protease inhibitor is maintained in an effective concentration at the site of potential adhesion formation for a period of time sufficient to permit substantial re-epithelialization. The protease inhibitor compound is typically administered over the perioperative interval, which for purposes of the present invention may include a period of time prior to surgery, through surgery itself, and also post-completion of surgery. The term of administration of administration may vary, but typically should be effected from the time of surgery for at least 24 to 48 hours after completion of surgical procedures. In general, the protease inhibitory compound may be administered, with or without sustained release vehicles or formulations, from the time of surgery for a period ranging between about 24 hours and about 14 days (a period that generally will include complete healing). Preferably the compound may be administered as above from the time of surgery for a period ranging between about 24 hours and 7 days, and more preferably ranging between about 24 hours and 3 days. […] Effective dosages, regimens, and routes of administration for other protease inhibitors may be readily determined by one of skill in the art using the teachings provided herein.

chymase [4] = experiment: Uterus chymase activity after uterine denudation surgery in hamsters; type: in vivo, hamster; conditions: three days after the operation; 1 ml of 10 μM in saline injected into the abdomen; mean ± S.E.; P=0.06 vs placebo (0.88±0.09)
Description: as §1, with “In the placebo group, the same 1 ml amount of saline was administered as in the chymase inhibitor group.” left out
as §2, with “assessed. […]” for “assessed.”
Chymase activity was measured as described previously (Jin et al., J. Hypertens. 16:657-664, 1998). […] Protein concentration was measured with the bicinchoninic acid protein assay reagent (Pierce Chemical, Rockford, Ill.) using bovine serum albumin as a standard. […]

bovine thrombin = bovine thrombin (Bos taurus, UniProt P00735); conditions: cited from earlier work
human leukocyte elastase = human leukocyte elastase (Homo sapiens, UniProt P08246); conditions: cited from earlier work
human leukocyte elastase, sequence (P08246 30-267): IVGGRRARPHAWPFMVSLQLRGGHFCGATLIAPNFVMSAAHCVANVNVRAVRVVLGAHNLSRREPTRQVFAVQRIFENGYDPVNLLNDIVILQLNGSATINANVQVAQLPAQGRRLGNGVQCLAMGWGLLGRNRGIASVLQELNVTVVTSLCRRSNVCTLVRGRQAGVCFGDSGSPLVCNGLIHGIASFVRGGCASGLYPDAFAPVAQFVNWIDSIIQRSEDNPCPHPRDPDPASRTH

Compound: CC(C)[C@H](NC(=O)CCC(=O)O)C(=O)N1CCC[C@H]1C(=O)NC(Cc1ccccc1)P(=O)(Oc1ccccc1)Oc1ccccc1 (stereo partly drawn) [Suc-Val-Pro-Phe^P(OPh)2-A]
preventative effect, reducing adhesion formation (Syrian hamsters): significant preventative effect

Compound: CC(C)[C@H](NC(=O)CCC(=O)O)C(=O)N1CCC[C@H]1C(=O)NC(Cc1ccccc1)P(=O)(Oc1ccccc1)Oc1ccccc1 (stereo partly drawn) [Suc-Val-Pro-Phe^P(OPh)2-I]
preventative effect, reducing adhesion formation (Syrian hamsters): not

chymase activity in vascular tissues (chymase [3]): significantly suppressed
uterus chymase activity (chymase [4]): 0.66±0.06 mU/mg protein
Compound: CC(C)[C@H](NC(=O)CCC(=O)O)C(=O)N1CCC[C@H]1C(=O)NC(Cc1ccccc1)P(=O)(Oc1ccccc1)Oc1ccccc1 (stereo partly drawn) [Suc-Val-Pro-Phe^P(OPh)2]
inhibitor potency for chymotrypsin and chymotrypsin-like enzymes [1]: relatively potent inhibitor
half-life in human plasma [2]: approximately 20 hr
scores of adhesion formation (Syrian hamsters; two weeks after surgery, 1 ml of 10 μM in saline into the abdomen, score 0-4, mean ± S.E., placebo 2.07±0.34, difference significant): 0.88±0.20
highest score of adhesion formation found (Syrian hamsters; two weeks after surgery, score 0-4, placebo scores between 0 and 4): ≤ 3

Compound: CC(C)(C)OC(=O)N[C@H](Cc1ccccc1)C(=O)N1CCC[C@H]1C(=O)NC(c1ccc(C(=N)N)cc1)P(=O)(Oc1ccccc1)Oc1ccccc1.Cl (stereo partly drawn) [diphenyl Boc-D-Phe-Pro-amino(4-amidinophenyl)methanephosphonate hydrochloride]
inhibitor potency for bovine thrombin (bovine thrombin): potent phosphonate inhibitor

Compound: Boc-Val-Pro-Val^P(OPh)2
inhibitor potency for human leukocyte elastase (human leukocyte elastase): relatively potent inhibitors

Compound: MeO-Suc-Ala-Ala-Pro-Val^P(OPh)2
inhibitor potency for human leukocyte elastase (human leukocyte elastase): relatively potent inhibitors
